From ChEMBL document CHEMBL1201862, “PubChem BioAssay data set” (2004)
Activity calls are given as the source filed them.

Legend:
[1] = target: Hepatocyte nuclear factor 4-alpha (Homo sapiens, UniProt P41235); format: functional, cell-based;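 further: biochemical luminescence-based dose-response counterscreen measuring inhibition of HNF4 dimerization, run alongside a screen for blockers of ABHD5–perilipin-5 interaction; split luciferase complementation of HNF4 fusion proteins in cell lysate measuring dimerization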
[2] = target: T1, Aurora kinase A (Homo sapiens, UniProt O14965); format: functional;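 further: value from the Navigating the Kinome kinase panel profiling, panel entry STK6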
T1 sequence (O14965 whole entry): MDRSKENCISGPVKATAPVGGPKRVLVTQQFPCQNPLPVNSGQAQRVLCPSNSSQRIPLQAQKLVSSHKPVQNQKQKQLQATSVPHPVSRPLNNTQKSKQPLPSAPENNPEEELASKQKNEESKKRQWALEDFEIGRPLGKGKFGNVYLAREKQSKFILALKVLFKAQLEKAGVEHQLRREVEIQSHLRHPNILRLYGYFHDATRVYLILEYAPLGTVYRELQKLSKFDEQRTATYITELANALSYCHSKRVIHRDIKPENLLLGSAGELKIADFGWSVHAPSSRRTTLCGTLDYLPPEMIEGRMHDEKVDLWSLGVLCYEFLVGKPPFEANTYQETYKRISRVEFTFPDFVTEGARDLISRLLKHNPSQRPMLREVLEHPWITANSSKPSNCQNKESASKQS

[3] = target: Aurora kinase B (Homo sapiens, UniProt Q96GD4); format: functional
[4] = target: Melanocortin receptor 4 (Homo sapiens, UniProt P32245); assay: inhibitors of MC4R cAMP signaling – cell-based, TR-FRET, biased antagonists, dose response (AID 602298); format: functional;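 further: antagonist potency against agonist-stimulated cAMP production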
[5] = target: T2, Corticotropin-releasing factor receptor 2/Corticotropin-releasing factor-binding protein (Homo sapiens, UniProt P24387+Q13324); assay: Dose Response confirmation of uHTS hits for small molecule antagonists of the CRF-binding protein and CRF-R2 receptor complex.; format: functional; settings: read-out: IC50_Mean
T2 sequence (Q13324 whole entry): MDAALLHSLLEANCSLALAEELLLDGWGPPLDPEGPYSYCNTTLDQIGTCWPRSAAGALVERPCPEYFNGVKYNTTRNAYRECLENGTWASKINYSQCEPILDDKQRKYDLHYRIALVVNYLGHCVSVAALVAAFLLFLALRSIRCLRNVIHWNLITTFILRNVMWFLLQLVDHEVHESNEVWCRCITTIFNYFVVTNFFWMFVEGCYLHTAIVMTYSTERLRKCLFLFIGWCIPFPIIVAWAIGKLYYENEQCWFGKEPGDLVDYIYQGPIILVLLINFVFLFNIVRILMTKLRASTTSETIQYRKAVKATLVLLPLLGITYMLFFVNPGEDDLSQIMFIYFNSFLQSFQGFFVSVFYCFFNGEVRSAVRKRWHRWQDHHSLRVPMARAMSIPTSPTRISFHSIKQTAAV
T2 sequence (P24387 whole entry): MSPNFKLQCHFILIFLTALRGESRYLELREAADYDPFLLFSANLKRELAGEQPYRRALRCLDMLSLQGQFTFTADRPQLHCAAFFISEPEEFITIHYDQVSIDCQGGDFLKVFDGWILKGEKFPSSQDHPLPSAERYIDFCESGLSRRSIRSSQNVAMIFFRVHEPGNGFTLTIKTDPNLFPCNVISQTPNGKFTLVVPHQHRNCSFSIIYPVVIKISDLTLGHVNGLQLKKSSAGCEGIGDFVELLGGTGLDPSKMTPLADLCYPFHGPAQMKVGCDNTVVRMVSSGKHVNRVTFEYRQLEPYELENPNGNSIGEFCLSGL

[6] = target: T2, Corticotropin-releasing factor receptor 2/Corticotropin-releasing factor-binding protein; assay: activators of CRF receptor 2 with binding protein – uHTS hits, confirmation (AID 602473); format: functional; settings: read-out: EC50_Mean
[7] = cAMP pathway inhibition in counterscreen cell line – TR-FRET cAMP detection, counter-screen for MC4R biased antagonist project, dose response (AID 602305); format: functional, cell-based;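 further: U2OS cells stimulated with forskolin near its EC80 as the cAMP inducer; potency is for inhibition of forskolin-stimulated cAMP signaling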
[8] = blockers of CRF-binding protein–CRF-R2 complex – cell-based, uHTS hits, 384-well, dose response (AID 651639); format: functional, Homo sapiens; settings: read-out: IC50_Mean
[9] = target: Ras and Rab interactor 1/Tyrosine-protein kinase ABL1 (Homo sapiens, UniProt P00519+Q13671); format: functional;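 further: biochemical TR-FRET dose-response test measuring inhibition of binding between Rin1 and Abl proteins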
[10] = target: ALK tyrosine kinase receptor (Homo sapiens, UniProt Q9UM73); format: functional;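 further: ALK tested as one member of a kinase panel screen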
[11] = target: Vascular endothelial growth factor receptor 2 (Homo sapiens, UniProt P35968); format: functional
[12] = target: T3, Small ubiquitin-related modifier 1 (Homo sapiens, UniProt P63165); assay: SUMO1 protein interaction blockers, potency – biochemical, fluorescence polarization, uHTS hits, dose response (AID 624382); format: functional; settings: read-out: IC50_Mean
[13] = target: T3, Small ubiquitin-related modifier 1; assay: SUMO1 protein-protein binding blockers, potency – biochemical, FRET, dose response (AID 624383); format: functional; settings: read-out: IC50_Mean
[14] = target: T4, Insulin-degrading enzyme (Homo sapiens, UniProt P14735); assay: recombinant IDE activation, cell-free – biochemical, fluorescence polarization, counter-screen for IDE activator project, dose response (AID 588681)
T4 sequence (P14735 whole entry): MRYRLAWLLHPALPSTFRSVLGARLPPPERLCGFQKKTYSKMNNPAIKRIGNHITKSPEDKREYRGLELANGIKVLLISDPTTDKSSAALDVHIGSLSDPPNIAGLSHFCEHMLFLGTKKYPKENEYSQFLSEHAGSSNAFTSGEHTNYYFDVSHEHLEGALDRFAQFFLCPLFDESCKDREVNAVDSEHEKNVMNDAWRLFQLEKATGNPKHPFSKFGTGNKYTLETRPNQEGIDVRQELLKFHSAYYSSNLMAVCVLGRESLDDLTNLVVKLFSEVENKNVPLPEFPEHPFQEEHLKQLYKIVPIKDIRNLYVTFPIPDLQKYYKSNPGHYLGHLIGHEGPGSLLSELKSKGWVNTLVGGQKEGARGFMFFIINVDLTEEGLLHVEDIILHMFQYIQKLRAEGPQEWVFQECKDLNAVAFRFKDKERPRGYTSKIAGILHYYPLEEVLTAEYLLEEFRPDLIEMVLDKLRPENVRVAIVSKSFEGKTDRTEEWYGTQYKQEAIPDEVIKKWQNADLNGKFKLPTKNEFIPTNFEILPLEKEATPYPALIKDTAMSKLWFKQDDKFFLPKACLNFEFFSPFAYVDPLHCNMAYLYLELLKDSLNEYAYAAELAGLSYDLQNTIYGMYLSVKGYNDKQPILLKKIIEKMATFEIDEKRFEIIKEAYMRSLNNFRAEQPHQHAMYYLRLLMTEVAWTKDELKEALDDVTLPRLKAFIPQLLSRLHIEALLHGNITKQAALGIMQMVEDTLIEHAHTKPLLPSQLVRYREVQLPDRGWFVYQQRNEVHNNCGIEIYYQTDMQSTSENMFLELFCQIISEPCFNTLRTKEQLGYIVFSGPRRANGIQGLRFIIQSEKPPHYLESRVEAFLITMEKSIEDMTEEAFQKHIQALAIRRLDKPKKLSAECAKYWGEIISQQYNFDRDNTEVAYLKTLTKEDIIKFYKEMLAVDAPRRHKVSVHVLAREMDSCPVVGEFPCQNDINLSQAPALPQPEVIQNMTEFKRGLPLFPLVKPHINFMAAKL

[15] = target: T4, Insulin-degrading enzyme; assay: cellular IDE activation of Abeta substrate cleavage – fluorescence polarization, HEK cells, dose response (AID 588439); format: functional, cell-based
[16] = tested on: HEK293; assay: membrane integrity loss in HEK cells – cell-based, fluorescence, cytotoxicity control for IDE activator project, dose response (AID 588440); format: functional; settings: Homo sapiens;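 further: cytotoxicity by LDH release measuring loss of membrane integrity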
[17] = tested on: HEK293; assay: optical interference in Abeta FP readout, dose response, artefact control for IDE activator project, biochemical, fluorescence polarization (AID 588442); format: functional, cell-based; settings: Homo sapiens
[18] = target: T5, Replicative DNA helicase DnaB (Mycobacterium tuberculosis, UniProt P9WMR3); assay: DnaB intein splicing inhibitors, dose response, biochemical, cell-free fluorescence (AID 449749); format: functional
T5 sequence (P9WMR3 whole entry): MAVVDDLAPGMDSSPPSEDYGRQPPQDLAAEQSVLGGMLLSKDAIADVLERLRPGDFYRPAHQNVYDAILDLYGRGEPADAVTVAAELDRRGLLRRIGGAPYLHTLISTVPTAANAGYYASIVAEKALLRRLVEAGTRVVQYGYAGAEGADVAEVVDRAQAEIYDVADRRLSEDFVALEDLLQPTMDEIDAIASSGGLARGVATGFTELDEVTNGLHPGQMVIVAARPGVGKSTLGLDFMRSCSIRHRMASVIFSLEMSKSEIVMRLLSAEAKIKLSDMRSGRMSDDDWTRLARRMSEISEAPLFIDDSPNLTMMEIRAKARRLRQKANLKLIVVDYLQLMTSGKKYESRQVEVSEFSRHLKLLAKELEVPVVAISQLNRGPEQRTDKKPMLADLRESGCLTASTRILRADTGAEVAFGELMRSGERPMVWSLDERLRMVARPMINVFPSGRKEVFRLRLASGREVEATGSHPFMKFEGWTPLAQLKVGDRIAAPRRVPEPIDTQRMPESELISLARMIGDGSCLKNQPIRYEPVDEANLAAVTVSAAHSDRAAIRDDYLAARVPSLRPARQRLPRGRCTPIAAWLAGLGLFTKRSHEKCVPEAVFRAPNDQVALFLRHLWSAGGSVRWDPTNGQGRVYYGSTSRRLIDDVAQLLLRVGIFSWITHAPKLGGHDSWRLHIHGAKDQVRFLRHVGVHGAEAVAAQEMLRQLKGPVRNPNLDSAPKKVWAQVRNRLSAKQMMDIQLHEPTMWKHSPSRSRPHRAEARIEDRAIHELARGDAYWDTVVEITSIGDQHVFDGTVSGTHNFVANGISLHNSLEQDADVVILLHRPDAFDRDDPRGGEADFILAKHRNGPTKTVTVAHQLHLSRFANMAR

[19] = target: T6, Protein RecA (Mycobacterium tuberculosis, UniProt P9WHJ3); assay: Fluorescence Cell-Free Homogeneous Dose Retest to Identify Inhibitors of RecA-Intein Splicing Activity. [Related pubchem assays (depositor defined):AID2097, AID2223, AID489010, AID492950]; format: functional
T6 sequence (P9WHJ3 whole entry): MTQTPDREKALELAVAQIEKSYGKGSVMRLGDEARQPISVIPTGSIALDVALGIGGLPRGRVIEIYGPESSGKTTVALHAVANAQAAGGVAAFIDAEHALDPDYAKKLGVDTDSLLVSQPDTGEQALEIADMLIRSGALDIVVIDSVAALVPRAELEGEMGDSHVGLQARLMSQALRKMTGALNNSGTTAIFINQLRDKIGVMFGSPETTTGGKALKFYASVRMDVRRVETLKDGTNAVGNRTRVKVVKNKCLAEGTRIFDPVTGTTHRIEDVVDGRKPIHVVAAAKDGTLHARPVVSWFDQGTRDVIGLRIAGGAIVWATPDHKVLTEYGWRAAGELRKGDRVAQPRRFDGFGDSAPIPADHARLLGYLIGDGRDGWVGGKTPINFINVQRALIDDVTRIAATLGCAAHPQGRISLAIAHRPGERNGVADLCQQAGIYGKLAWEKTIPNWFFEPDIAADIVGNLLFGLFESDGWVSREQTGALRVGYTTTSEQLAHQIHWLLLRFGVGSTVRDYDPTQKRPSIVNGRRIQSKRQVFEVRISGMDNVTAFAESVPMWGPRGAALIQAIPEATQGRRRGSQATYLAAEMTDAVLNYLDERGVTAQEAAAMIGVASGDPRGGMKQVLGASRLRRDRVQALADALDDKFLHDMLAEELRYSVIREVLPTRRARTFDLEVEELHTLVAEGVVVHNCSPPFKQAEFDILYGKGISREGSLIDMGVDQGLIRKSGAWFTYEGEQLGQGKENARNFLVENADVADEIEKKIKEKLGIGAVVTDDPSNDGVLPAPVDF

Chain of Melanocortin receptor 4 (P32245 whole entry): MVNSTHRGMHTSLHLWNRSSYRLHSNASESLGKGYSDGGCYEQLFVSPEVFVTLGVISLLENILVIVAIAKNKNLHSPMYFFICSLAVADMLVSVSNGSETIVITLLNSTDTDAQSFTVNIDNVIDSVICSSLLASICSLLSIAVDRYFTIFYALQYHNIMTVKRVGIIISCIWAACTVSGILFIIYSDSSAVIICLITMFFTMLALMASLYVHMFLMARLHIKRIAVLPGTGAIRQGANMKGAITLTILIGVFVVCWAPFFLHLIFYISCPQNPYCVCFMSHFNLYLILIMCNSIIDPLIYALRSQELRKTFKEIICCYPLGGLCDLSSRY
T3 sequence (P63165 whole entry): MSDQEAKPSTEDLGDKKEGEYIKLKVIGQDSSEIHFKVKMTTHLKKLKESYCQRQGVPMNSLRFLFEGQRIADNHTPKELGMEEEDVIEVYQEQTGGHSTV
Chain of Ras and Rab interactor 1/Tyrosine-protein kinase ABL1 (P00519 whole entry): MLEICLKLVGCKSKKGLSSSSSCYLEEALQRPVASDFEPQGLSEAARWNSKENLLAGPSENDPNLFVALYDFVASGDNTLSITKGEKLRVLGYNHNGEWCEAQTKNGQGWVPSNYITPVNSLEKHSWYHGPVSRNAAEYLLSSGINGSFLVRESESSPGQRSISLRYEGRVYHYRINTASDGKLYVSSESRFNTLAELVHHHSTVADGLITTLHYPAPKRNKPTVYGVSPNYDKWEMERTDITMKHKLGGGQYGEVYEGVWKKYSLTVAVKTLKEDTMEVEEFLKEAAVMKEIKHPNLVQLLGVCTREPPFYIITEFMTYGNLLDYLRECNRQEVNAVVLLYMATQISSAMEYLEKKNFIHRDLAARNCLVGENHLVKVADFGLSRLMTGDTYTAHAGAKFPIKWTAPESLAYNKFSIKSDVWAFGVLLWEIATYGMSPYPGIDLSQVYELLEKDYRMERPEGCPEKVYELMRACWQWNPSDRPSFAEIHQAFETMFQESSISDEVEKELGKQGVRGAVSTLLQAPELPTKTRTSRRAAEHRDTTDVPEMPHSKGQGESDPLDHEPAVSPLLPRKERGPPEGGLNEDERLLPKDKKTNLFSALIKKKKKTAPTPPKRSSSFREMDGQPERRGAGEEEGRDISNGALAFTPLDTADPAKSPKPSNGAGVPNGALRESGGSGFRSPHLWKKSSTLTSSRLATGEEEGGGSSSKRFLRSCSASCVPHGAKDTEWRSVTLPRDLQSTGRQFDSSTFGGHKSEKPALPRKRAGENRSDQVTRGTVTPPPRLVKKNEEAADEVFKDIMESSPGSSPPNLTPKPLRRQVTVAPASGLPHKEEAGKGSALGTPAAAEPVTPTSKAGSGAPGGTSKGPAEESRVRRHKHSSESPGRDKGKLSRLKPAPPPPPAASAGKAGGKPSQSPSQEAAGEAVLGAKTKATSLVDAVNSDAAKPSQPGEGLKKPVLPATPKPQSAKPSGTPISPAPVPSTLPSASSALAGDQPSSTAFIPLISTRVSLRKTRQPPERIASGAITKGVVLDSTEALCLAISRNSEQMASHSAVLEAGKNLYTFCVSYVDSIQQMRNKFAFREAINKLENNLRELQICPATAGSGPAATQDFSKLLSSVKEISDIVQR
Chain of Ras and Rab interactor 1/Tyrosine-protein kinase ABL1 (Q13671 whole entry): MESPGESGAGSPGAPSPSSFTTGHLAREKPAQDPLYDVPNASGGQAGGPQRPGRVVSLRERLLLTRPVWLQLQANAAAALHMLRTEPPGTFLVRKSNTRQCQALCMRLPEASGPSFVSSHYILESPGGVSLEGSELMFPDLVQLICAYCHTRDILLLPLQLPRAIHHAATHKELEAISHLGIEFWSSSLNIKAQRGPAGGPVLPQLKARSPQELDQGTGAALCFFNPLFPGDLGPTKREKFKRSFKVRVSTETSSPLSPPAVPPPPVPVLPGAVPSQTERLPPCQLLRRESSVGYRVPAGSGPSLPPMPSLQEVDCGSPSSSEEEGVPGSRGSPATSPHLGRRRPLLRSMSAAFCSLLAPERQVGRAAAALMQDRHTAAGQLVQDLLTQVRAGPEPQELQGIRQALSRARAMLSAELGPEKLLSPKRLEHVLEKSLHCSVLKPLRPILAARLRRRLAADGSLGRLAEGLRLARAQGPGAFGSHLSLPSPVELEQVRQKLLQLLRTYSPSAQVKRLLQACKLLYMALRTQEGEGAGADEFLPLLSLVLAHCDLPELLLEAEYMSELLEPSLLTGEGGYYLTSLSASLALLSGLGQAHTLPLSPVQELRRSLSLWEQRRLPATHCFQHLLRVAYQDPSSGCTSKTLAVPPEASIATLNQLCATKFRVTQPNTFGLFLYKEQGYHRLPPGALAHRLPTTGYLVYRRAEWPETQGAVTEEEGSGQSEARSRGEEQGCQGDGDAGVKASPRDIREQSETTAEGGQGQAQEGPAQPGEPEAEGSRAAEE
Chain of Aurora kinase B (Q96GD4 whole entry): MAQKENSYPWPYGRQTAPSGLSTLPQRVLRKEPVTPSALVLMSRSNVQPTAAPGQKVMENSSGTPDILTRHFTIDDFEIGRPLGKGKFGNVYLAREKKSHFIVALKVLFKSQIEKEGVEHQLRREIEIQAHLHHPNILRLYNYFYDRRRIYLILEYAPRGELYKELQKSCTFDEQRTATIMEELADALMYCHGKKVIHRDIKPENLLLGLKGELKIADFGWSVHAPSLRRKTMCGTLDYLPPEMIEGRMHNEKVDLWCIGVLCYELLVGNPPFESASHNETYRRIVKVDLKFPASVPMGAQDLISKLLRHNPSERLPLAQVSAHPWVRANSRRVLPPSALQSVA
Chain of Hepatocyte nuclear factor 4-alpha (P41235 whole entry, the tested form may be a part): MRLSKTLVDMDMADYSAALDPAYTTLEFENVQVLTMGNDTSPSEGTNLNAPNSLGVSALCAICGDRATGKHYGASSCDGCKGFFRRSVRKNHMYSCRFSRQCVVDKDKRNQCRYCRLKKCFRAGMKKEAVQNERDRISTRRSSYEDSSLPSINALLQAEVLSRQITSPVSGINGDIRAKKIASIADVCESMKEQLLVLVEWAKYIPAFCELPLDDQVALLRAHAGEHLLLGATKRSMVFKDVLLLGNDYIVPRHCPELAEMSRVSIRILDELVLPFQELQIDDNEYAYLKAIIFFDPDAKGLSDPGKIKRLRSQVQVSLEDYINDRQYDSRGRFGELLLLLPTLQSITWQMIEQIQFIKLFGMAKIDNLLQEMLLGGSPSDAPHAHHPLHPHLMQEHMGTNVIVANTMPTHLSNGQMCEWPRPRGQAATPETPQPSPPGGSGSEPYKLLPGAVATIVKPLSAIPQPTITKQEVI
Chain of Vascular endothelial growth factor receptor 2 (P35968 whole entry): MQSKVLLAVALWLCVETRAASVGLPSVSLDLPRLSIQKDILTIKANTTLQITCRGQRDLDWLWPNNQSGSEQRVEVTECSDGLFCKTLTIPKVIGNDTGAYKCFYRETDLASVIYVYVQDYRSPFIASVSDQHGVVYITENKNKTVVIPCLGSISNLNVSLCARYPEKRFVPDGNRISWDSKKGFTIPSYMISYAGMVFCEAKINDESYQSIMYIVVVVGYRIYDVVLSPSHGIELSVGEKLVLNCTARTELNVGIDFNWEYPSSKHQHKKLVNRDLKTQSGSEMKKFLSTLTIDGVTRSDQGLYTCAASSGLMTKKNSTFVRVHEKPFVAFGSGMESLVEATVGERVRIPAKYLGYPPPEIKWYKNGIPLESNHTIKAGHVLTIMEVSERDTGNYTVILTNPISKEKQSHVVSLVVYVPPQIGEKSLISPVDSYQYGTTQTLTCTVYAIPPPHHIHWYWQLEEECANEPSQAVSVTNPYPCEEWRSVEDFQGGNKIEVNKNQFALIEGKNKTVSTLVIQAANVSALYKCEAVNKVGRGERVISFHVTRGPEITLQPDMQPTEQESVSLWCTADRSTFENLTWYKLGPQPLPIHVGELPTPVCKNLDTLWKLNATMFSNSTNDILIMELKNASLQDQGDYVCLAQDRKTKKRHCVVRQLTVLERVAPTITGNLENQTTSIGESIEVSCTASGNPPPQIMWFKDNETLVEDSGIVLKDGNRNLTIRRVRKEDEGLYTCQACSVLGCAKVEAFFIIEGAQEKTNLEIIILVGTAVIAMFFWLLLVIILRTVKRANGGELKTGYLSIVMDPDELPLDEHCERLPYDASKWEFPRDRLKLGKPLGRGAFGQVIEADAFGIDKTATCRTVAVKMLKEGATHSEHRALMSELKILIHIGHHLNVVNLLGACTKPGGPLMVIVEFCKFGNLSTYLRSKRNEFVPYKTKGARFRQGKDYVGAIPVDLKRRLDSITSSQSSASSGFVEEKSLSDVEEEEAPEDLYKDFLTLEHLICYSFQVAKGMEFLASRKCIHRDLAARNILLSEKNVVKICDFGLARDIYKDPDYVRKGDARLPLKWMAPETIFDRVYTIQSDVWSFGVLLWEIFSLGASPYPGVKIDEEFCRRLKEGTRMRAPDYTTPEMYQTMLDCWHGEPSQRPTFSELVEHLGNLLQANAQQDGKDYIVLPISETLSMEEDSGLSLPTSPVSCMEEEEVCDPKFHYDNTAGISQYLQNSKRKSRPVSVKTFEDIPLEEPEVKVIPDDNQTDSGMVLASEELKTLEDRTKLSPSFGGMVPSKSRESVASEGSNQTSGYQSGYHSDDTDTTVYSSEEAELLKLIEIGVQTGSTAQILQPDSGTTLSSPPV

Compound: COc1cc(C(C)=O)ccc1OCc1cn(CC(=O)c2ccc(O)cc2)nn1
- IC50 [1]: 5.85 µM (active)

Compound: CN(C)C(=O)C=Cc1ccc(-c2ccc(NC(=O)Nc3cccc(C(F)(F)F)c3)cc2)c2c(N)n[nH]c12
- Ki [2]: 0.0398 µM (active)
- Ki [3]: 0.00316 µM (active)

Compound: O=C(O)c1cnn(-c2nc(-c3ccc(Cl)c(Cl)c3)cs2)c1C(F)(F)F
- IC50 [4]: 5 µM (active)
- IC50 [5]: 13.2 µM (active)
- EC50 [6]: 43.4 µM (active)
- IC50 [7]: > 64.6 µM (inactive)
- IC50 [8]: 11 µM (active)

Compound: NC(=O)c1ccc(SCC(=O)OCC(=O)NCC2CCCCC2)c([N+](=O)[O-])c1
- IC50 [4]: > 64.5 µM (inactive)
- IC50 [7]: > 64.5 µM (inactive)

Compound: COC(=O)c1ccc(COC(=O)c2ccc(-n3cnnn3)cc2)o1
- IC50 [9]: 21.1 µM (inactive)

Compound: NC(=O)c1cccc2nc(-c3ccc(-n4ccc(CN5CCCCC5)c4)cc3)[nH]c12
- Ki [10]: > 3.16 µM (inactive)
- Ki [2]: > 2 µM (inactive)
- Ki [11]: 2 µM (active)
- Ki [3]: 0.0398 µM (active)

Compound: CCCCCC(=O)Nc1nc(C)c(-c2csc(Nc3cc(Cl)ccc3C)n2)s1
- IC50 [12]: > 66.6 µM (inactive)
- IC50 [13]: 10.7 µM (active)

Compound: CC(OC(=O)CC1CC2CCC1C2)C(=O)Nc1cccc(S(=O)(=O)N2CCOCC2)c1 (stereo not given)
- EC50 [14]: > 54.7 µM (inactive)
- EC50 [15]: > 54.7 µM (inactive)
- IC50 [16]: > 89.2 µM (inactive)
- EC50 [17]: > 54.7 µM (inactive)

Compound: CC1(c2nnc(Cc3ccccc3)o2)CC(c2c(Cl)cccc2Cl)=NO1 (stereo not given)
- EC50 [14]: > 54.7 µM (inactive)
- EC50 [15]: > 54.7 µM (inactive)
- IC50 [16]: > 89.2 µM (inactive)
- EC50 [17]: > 55.9 µM (inactive)

Compound: O=C1c2ccccc2C(=O)N1SC1CCCCC1
- IC50 [4]: 62 µM (inactive)
- IC50 [7]: 63.7 µM (inactive)

Compound: COc1ccc(OC)c(NC(=O)Cc2ccc(NC3=NC4CS(=O)(=O)CC4S3)cc2)c1 (stereo not given)
- AC50 [18]: > 380 µM (inactive)
- EC50 [19]: > 380 µM (inactive)
- IC50 [9]: 14.1 µM (inactive)
